Patent US10954405B2, “Water-based diacetylene ink, hydrochromic polydiacetylene paper prepared using the ink, and use thereof” (INDUSTRY-UNIVERSITY COOPERATION FOUNDATION HANYANG …, priority 2015, dated 2021)

Test: Solubility of DA-1 in water dependent upon temperature (FIG. 6C)
Format: physicochemical
Conditions: sample of DA-1 and water in a plastic bag on a paper printed with "A", temperature elevated; clearer at 25° C. and 30° C.
Description: FIGS. 6A-6C are a set of photographs illustrating the temperature-dependent reaction of the moisture test paper manufactured according to the moisture test paper manufacture example and solubility of DA-1 in water dependent upon temperature.
Referring to FIG. 6C when a sample including DA-1 and water was put into a plastic bag, the plastic bag was put on a paper on which “A” was printed, and temperature was elevated, the lower “A” began to be observed from about 20° C. and became clearer as temperature was elevated to 25° C. and 30° C.

Compound: CCCCCCCCCCCCC#CC#CCCCCCCCCC(=O)NCCCn1cc[n+](CC#N)c1 [DA-1]
- temperature from which DA-1 dissolves in water (printed "A" under the sample began to be observed): about 20 °C
